Laboratory results from patent US8178577B2, “Tricyclic derivatives as potent and selective histone deacetylase inhibitors” (Shenzhen Chipscreen Biosciences Ltd., priority 2008, dated 2012).

Tests used:
total HDAC enzyme = assay: In vitro inhibition of total HDAC enzyme activity (BIOMOL HDAC Fluorimetric Assay/Drug Discovery Kit, HeLa extract); format: biochemical
Method: Measurement of In Vitro Inhibition of Total HDAC Enzyme Activity:
The in vitro inhibition of total HDAC enzyme was determined by HDAC Fluorimetric Assay/Drug Discovery Kit (BIOMOL) according to manufacture's instruction. • 1. Add Assay buffer, diluted trichostatin A or test inhibitor to appropriate wells of the microtiter plate. Following table lists examples of various assay types and the additions required for each test.
• 2. Add diluted HeLa extract or other HDAC sample to all wells except those that are to be “No Enzyme Controls” (Blank). • 3. Allow diluted Fluor de LYS™ Substrate and the samples in the microtiter plate to equilibrate to assay temperature (25° C.). • 4. Initiate HDAC reactions by adding diluted substrate (25 μl) to each well and mixing thoroughly. • 5. Allow HDAC reactions to proceed for desired length of time and then stop them by addition of Fluor de Lys™ Developer (50 μl). Incubate plate at room temperature (25° C.) for 10-15 min. • 6. Read samples in a microtiter-plate reading fluorimeter capable of excitation at a wavelength in the range 350-380 nm and detection of emitted light in the range 440-460 nm. Measurement of In Vivo Inhibition of HDAC Subtype Activity: […]

HDAC Class I = assay: P21 reporter gene assay in HeLa cells; format: cell-based; settings: relative to SAHA, 24 hours
Method: (§1) HDAC subtype selectivity inhibition assay of tested compounds was carried out by several reporter gene assays experiments. Briefly, HeLa cells were seeded in 96-well plates the day before transfection to give a confluence of 50-80%. Cells were transfected with one of reporter gene plasmids containing a promoter sequences or response elements upstream of a luciferase gene construct using FuGene6 transfection reagent according to the manufacturer's instructions (Roche). The promoter or response elements including p21-promoter, gdf11-promoter, serum response element (SRE), MEF-binding element were fused upstream to the luciferase gene reporter construct. For normalizing the transfection efficiency, a GFP expression plasmid was cotransfected. Cells were allowed to express protein for 24 hours followed by addition of individual compounds or the vehicle (DMSO). 24 hours later the cells were harvested, and the luciferase assays were performed using the luciferase assay kit according to the manufacturer's instructions (Promega). To normalize the data from the luciferase assays, β-galactosidase activity from transfected cells was measured using a kit (Promega) as instructed by the manufacturer.

HDAC4/5 = assay: MEF2 reporter gene assay in HeLa cells; format: cell-based; settings: relative to SAHA, 24 hours
Method: as §1

HDAC7 = target: T1, HDAC7 (Homo sapiens, UniProt Q8WUI4); assay: Nur77 reporter gene assay in HeLa cells; format: cell-based; settings: HeLa, 24 h, read-out: % of SAHA Response for HDAC7 at 10 μM (Nur77 reporter gene)
T1 construct: endogenous in cells; host or cells: HeLa
T1 sequence (Q8WUI4 1-952): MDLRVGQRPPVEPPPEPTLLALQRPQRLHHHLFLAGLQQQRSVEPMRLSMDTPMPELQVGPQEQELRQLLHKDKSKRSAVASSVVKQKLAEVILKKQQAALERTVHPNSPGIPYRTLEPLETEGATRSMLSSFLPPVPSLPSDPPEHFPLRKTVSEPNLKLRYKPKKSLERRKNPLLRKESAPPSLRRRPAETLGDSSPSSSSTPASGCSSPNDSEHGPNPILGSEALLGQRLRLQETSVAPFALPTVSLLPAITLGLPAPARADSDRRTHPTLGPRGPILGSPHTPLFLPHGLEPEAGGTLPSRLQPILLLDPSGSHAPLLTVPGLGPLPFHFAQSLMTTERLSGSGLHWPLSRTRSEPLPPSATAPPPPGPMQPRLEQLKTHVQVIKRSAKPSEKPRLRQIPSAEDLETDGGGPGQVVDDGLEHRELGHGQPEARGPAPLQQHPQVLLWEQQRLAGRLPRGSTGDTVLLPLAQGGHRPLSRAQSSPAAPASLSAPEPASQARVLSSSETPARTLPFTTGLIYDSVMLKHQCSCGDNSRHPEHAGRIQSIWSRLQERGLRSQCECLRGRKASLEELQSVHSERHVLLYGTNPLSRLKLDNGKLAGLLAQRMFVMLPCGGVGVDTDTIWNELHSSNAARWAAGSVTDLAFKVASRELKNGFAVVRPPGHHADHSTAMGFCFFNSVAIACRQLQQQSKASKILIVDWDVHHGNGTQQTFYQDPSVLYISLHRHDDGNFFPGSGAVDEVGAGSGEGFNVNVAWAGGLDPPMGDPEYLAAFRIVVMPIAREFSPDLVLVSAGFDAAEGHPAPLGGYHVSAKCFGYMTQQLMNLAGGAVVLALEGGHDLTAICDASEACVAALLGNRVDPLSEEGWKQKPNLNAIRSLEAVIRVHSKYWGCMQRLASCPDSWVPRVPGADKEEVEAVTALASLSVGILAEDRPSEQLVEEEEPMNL
Method: as §1

Hut-78 = assay: Cell proliferation (MTS), Hut-78; format: cell-based; settings: Homo sapiens, HuT78, 72 hours
Method: (§2) Measurement of In Vivo Cell Proliferation:
(§3) Tumor cells were trypsinized and plated into 96-well plates at 3,000 per well and incubated in complete medium with 10% FBS for 24 hours. Compounds were added over a final concentration range of 100 μmol/L to 100 nmol/L in 0.1% DMSO and incubated for 72 hours in complete medium. The effects on proliferation were determined by addition of MTS reagent (Promega) according to the instruction, incubation for 2 hours at 37° C. in CO2 incubator, and record the absorbance at 490 nm using an ELISA plate reader.

HL60 = assay: Cell proliferation (MTS), HL60; format: cell-based; settings: Homo sapiens, HL-60, 72 hours
Method: as §2, §3

HeLa = assay: Cell proliferation (MTS), HeLa; format: cell-based; settings: Homo sapiens, 72 hours
Method: as §2, §3

A549 = assay: Cell proliferation (MTS), A549; format: cell-based; settings: Homo sapiens, 72 hours
Method: as §2, §3

Structure (SMILES) | % of Inhibition on total HDAC enzyme at 30 μM (total HDAC enzyme) [%] | % of SAHA Response for HDAC Class I at 10 μM (P21 reporter gene) (HDAC Class I) [%] | % of SAHA Response for HDAC4/5 at 10 μM (MEF2 reporter gene) (HDAC4/5) [%] | activation at 10 µM (HDAC7) [%] | GI50 (Hut-78) [µM] | GI50 (HL60) [µM] | GI50 (HeLa) [µM] | GI50 (A549) [µM]
Nc1ccccc1NC(=O)CCCCCNC(=O)C=C1c2ccccc2-c2ccccc21 [Example 13, 6-(2-(9H-fluoren-9-ylidene)acetamido)-N-(2-aminophenyl)hexanamide] | 50 | 133 | 118 | 66 | 1.35 | 1.35 | 8.32 | 4.9
Nc1cc(F)ccc1NC(=O)CCCCCNC(=O)C=C1c2ccccc2-c2ccccc21 [Example 12, 6-(2-(9H-fluoren-9-ylidene)acetamido)-N-(2-amino-4-fluorophenyl)hexanamide] | 50 | 39 | 101 | 38 | 3.89 | 2.29 | 22.9 | 18.2
